Data reported in patent publication US11739078B2, “Methods of inhibiting kinases” (INSILICO MEDICINE IP LIMITED, priority 2019, dated 2023).
Like-named read-outs stand apart in the source and are kept apart here.

Key:
[1] = target: TNIK (Homo sapiens (Human), UniProt Q9UKE5); assay: TNIK enzymatic assay (radiometric kinase inhibition); format: biochemical
Description: The compounds were studied for function as TNIK inhibitors to generate the data of Table 1. […] (specific activity and concentration as required). The reaction is initiated by the addition of the Mg/ATP mix. After incubation for 40 minutes at room temperature, the reaction is stopped by the addition of phosphoric acid to a concentration of 0.5%.

[2] = target: MAP4K4 (h) (Homo sapiens (Human), UniProt O95819); assay: MAP4K4 in vitro kinase assay (radiometric); format: biochemical; conditions: read-out: MAP4K4_IC50
Chain of MAP4K4 (h) (O95819 whole entry): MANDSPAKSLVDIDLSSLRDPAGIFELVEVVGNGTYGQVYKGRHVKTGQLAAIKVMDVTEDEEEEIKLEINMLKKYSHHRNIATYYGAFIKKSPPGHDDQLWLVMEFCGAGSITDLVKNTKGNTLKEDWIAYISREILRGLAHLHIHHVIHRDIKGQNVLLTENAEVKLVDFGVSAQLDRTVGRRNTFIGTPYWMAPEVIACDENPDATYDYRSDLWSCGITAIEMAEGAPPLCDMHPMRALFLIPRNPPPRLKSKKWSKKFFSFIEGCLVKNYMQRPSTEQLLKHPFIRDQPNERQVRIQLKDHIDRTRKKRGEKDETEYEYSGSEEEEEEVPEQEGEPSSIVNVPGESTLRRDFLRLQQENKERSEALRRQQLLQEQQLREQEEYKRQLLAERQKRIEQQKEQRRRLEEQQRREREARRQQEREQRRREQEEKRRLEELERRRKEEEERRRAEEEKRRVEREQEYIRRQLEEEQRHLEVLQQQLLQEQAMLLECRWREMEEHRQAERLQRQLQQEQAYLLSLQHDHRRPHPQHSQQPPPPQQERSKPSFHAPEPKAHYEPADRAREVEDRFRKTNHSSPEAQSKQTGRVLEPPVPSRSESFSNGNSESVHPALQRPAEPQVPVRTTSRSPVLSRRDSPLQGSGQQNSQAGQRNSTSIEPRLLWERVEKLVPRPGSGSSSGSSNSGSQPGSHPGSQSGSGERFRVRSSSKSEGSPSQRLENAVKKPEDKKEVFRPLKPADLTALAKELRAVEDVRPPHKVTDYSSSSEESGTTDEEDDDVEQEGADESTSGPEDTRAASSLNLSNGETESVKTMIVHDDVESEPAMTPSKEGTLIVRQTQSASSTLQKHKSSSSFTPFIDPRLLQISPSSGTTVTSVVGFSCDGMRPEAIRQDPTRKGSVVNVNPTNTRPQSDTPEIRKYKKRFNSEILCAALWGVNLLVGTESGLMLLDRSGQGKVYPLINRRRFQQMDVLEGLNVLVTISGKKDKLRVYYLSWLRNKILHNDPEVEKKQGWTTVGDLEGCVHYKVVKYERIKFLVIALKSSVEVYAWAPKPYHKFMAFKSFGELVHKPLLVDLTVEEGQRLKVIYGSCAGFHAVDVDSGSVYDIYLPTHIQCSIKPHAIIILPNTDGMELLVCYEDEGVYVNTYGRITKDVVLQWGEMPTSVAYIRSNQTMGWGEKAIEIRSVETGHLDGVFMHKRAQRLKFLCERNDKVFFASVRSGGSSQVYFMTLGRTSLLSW
Description: (specific activity and concentration as required). The reaction is initiated by the addition of the Mg/ATP mix. After incubation for 40 minutes at room temperature, the reaction is stopped by the addition of phosphoric acid to a concentration of 0.5%.

[3] = TNIK enzymatic assay, Table 1, read-out: IC50

Chain of TNIK (Q9UKE5 whole entry): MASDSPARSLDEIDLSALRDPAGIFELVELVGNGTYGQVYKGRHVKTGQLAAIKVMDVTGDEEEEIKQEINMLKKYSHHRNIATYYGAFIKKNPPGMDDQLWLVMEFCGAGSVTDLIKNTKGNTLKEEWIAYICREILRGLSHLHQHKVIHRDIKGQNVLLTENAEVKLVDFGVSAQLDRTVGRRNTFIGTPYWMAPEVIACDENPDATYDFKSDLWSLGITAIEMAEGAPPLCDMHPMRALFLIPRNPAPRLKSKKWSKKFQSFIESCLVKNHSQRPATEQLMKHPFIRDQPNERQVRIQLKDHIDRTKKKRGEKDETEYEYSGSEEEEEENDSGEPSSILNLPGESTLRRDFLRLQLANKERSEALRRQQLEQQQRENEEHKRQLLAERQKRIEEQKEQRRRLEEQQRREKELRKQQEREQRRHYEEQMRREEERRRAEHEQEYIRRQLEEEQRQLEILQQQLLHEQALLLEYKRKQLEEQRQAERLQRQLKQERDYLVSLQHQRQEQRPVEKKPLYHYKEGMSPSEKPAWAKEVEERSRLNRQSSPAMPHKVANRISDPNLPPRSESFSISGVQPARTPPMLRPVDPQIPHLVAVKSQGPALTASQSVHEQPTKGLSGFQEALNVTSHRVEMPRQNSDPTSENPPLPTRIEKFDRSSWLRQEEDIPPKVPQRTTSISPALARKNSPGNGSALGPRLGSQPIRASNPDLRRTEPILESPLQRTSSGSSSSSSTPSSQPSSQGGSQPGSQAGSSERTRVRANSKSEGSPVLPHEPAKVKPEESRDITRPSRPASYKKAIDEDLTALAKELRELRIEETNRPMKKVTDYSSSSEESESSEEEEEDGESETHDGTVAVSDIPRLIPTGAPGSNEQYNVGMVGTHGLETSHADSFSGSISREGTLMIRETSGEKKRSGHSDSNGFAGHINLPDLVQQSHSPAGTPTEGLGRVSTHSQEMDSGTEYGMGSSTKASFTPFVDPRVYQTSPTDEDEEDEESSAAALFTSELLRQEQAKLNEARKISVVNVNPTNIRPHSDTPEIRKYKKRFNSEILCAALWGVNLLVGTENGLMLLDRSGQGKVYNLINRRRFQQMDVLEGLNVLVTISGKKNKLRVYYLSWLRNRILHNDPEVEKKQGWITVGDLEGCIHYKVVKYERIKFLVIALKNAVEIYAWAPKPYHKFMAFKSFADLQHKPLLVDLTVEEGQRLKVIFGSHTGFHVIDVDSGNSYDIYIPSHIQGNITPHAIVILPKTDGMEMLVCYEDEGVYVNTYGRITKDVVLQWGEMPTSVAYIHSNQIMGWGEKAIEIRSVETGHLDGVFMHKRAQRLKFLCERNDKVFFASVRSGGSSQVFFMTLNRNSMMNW

Structure (SMILES)	IC50 ([1]; read-out: TNIK_IC50) [nM]	IC50 [1, 3] [nM]	IC50 [2] [nM]
O=C(Nc1cc[nH]c(=O)c1)c1ccc(-c2c(-c3ccc(F)cc3)ncn2C2COC[C@@H]2F)o1 (mixture of isomers) [Compound A-57, rac-5-(4-(4-fluorophenyl)-1-((4R)-4-fluorotetrahydrofuran-3-yl)-1H-imidazol-5-yl)-N-(2-oxo-1,2-dihydropyridin-4-yl)furan-2-carboxamide]	1160		
O=C(Nc1ccc(F)cc1F)c1ccc(-c2c(-c3ccc(F)cc3)ncn2C2CCCC2)o1 [Compound 1, 5-(1-cyclopentyl-4-(4-fluorophenyl)-1H-imidazol-5-yl)-N-(2,4-difluorophenyl)furan-2-carboxamide]	30	30	97.6
COc1ccc(OC)c(NC(=O)c2ccc(-c3c(-c4ccc(F)cc4)ncn3C3CCCC3)o2)c1 [Compound 2, 5-(1-cyclopentyl-4-(4-fluorophenyl)-1H-imidazol-5-yl)-N-(2,5-dimethoxyphenyl)furan-2-carboxamide]	3.07	< 10	10.2
O=C(Nc1cc(F)ccc1F)c1ccc(-c2c(-c3ccc(F)cc3)ncn2C2CCCC2)o1 [Compound 3, 5-(1-cyclopentyl-4-(4-fluorophenyl)-1H-imidazol-5-yl)-N-(2,5-difluorophenyl)furan-2-carboxamide]	3.82	< 10	24.6
COc1cccc(NC(=O)c2ccc(-c3c(-c4ccc(C)cc4)ncn3C3CCCCC3)o2)c1 [Compound 4, 5-(1-cyclohexyl-4-(p-tolyl)-1H-imidazol-5-yl)-N-(3-methoxyphenyl)furan-2-carboxamide]	9320	9320	> 1000
COc1ccc(NC(=O)c2ccc(-c3c(-c4ccc(C)cc4)ncn3C3CCCCC3)o2)cc1 [Compound 5, 5-(1-cyclohexyl-4-(p-tolyl)-1H-imidazol-5-yl)-N-(4-methoxyphenyl)furan-2-carboxamide]	2410	2410	> 1000
COc1cc(NC(=O)c2ccc(-c3c(-c4ccc(C)cc4)ncn3C3CCCCC3)o2)cc(OC)c1 [Compound 6, 5-(1-cyclohexyl-4-(p-tolyl)-1H-imidazol-5-yl)-N-(3,5-dimethoxyphenyl)furan-2-carboxamide]	9730	9730	> 1000
Cc1ccc(-c2ncn(C3CCCCC3)c2-c2ccc(C(=O)Nc3ccccc3F)o2)cc1 [Compound 7, 5-(1-cyclohexyl-4-(p-tolyl)-1H-imidazol-5-yl)-N-(2-fluorophenyl)furan-2-carboxamide]	1510	1510	> 1000
Cc1ccc(-c2ncn(C3CCCCC3)c2-c2ccc(C(=O)Nc3ccc(F)cc3)o2)cc1 [Compound 8, 5-(1-cyclohexyl-4-(p-tolyl)-1H-imidazol-5-yl)-N-(4-fluorophenyl)furan-2-carboxamide]	4450	4450	> 1000
CC(=O)c1ccc(NC(=O)c2ccc(-c3c(-c4ccc(F)cc4)ncn3C3CCCC3)o2)cc1 [Compound 9, N-(4-acetylphenyl)-5-(1-cyclopentyl-4-(4-fluorophenyl)-1H-imidazol-5-yl)furan-2-carboxamide]	11	11	36.8
O=C(Nc1ccccc1C(F)(F)F)c1ccc(-c2c(-c3ccc(F)cc3)ncn2C2CCCC2)o1 [Compound 10, 5-(1-cyclopentyl-4-(4-fluorophenyl)-1H-imidazol-5-yl)-N-(2-(trifluoromethyl)phenyl)furan-2-carboxamide]	< 10	10	30.4
COc1ccc(NC(=O)c2ccc(-c3c(-c4ccc(F)cc4)ncn3C3CCCC3)o2)cc1OC [Compound 11, 5-(1-cyclopentyl-4-(4-fluorophenyl)-1H-imidazol-5-yl)-N-(3,4-dimethoxyphenyl)furan-2-carboxamide]	42	42	93.2
COc1cccc(NC(=O)c2ccc(-c3c(-c4ccc(F)cc4)ncn3C3CCCC3)o2)c1 [Compound 12, 5-(1-cyclopentyl-4-(4-fluorophenyl)-1H-imidazol-5-yl)-N-(3-methoxyphenyl)furan-2-carboxamide]	101	101	141
O=C(Nc1ccccc1Br)c1ccc(-c2c(-c3ccc(F)cc3)ncn2C2CCCC2)o1 [Compound 13, N-(2-bromophenyl)-5-(1-cyclopentyl-4-(4-fluorophenyl)-1H-imidazol-5-yl)furan-2-carboxamide]	12	< 10	15.2
O=C(Nc1ccccc1Cl)c1ccc(-c2c(-c3ccc(F)cc3)ncn2C2CCCC2)o1 [Compound 14, N-(2-chlorophenyl)-5-(1-cyclopentyl-4-(4-fluorophenyl)-1H-imidazol-5-yl)furan-2-carboxamide]	15.2	< 10	10.9
O=C(Nc1ccc(Cl)cc1)c1ccc(-c2c(-c3ccc(F)cc3)ncn2C2CCCC2)o1 [Compound 15, N-(4-chlorophenyl)-5-(1-cyclopentyl-4-(4-fluorophenyl)-1H-imidazol-5-yl)furan-2-carboxamide]	101	101	116
Cc1cc(Cl)ccc1NC(=O)c1ccc(-c2c(-c3ccc(F)cc3)ncn2C2CCCC2)o1 [Compound 16, N-(4-chloro-2-methylphenyl)-5-(1-cyclopentyl-4-(4-fluorophenyl)-1H-imidazol-5-yl)furan-2-carboxamide]	38	38	101
Cc1ccc(Cl)cc1NC(=O)c1ccc(-c2c(-c3ccc(F)cc3)ncn2C2CCCC2)o1 [Compound 17, N-(5-chloro-2-methylphenyl)-5-(1-cyclopentyl-4-(4-fluorophenyl)-1H-imidazol-5-yl)furan-2-carboxamide]	46	46	106
COc1ccc(NC(=O)c2ccc(-c3c(-c4ccc(F)cc4)ncn3C3CCCC3)o2)c(OC)c1 [Compound 18, 5-(1-cyclopentyl-4-(4-fluorophenyl)-1H-imidazol-5-yl)-N-(2,4-dimethoxyphenyl)furan-2-carboxamide]	2.33	< 10	4.05
COc1cc(NC(=O)c2ccc(-c3c(-c4ccc(F)cc4)ncn3C3CCCC3)o2)cc(OC)c1 [Compound 19, 5-(1-cyclopentyl-4-(4-fluorophenyl)-1H-imidazol-5-yl)-N-(3,5-dimethoxyphenyl)furan-2-carboxamide]	231	231	204
Cc1cccc(NC(=O)c2ccc(-c3c(-c4ccc(F)cc4)ncn3C3CCCC3)o2)c1C [Compound 20, 5-(1-cyclopentyl-4-(4-fluorophenyl)-1H-imidazol-5-yl)-N-(2,3-dimethylphenyl)furan-2-carboxamide]	136	136	129
Cc1cccc(C)c1NC(=O)c1ccc(-c2c(-c3ccc(F)cc3)ncn2C2CCCC2)o1 [Compound 21, 5-(1-cyclopentyl-4-(4-fluorophenyl)-1H-imidazol-5-yl)-N-(2,6-dimethylphenyl)furan-2-carboxamide]	214	214	> 1000
CCOC(=O)c1cccc(NC(=O)c2ccc(-c3c(-c4ccc(F)cc4)ncn3C3CCCC3)o2)c1 [Compound 22, ethyl 3-(5-(1-cyclopentyl-4-(4-fluorophenyl)-1H-imidazol-5-yl)furan-2-carboxamido)benzoate]	483	483	> 1000
CCc1ccc(NC(=O)c2ccc(-c3c(-c4ccc(F)cc4)ncn3C3CCCC3)o2)cc1 [Compound 23, 5-(1-cyclopentyl-4-(4-fluorophenyl)-1H-imidazol-5-yl)-N-(4-ethylphenyl)furan-2-carboxamide]	55	55	102
O=C(Nc1cccc(F)c1)c1ccc(-c2c(-c3ccc(F)cc3)ncn2C2CCCC2)o1 [Compound 25, 5-(1-cyclopentyl-4-(4-fluorophenyl)-1H-imidazol-5-yl)-N-(3-fluorophenyl)furan-2-carboxamide]	59	59	83.4
O=C(Nc1ccc(F)cc1)c1ccc(-c2c(-c3ccc(F)cc3)ncn2C2CCCC2)o1 [Compound 26, 5-(1-cyclopentyl-4-(4-fluorophenyl)-1H-imidazol-5-yl)-N-(4-fluorophenyl)furan-2-carboxamide]	55	55	97.9
COC(=O)c1ccccc1NC(=O)c1ccc(-c2c(-c3ccc(F)cc3)ncn2C2CCCC2)o1 [Compound 27, methyl 2-(5-(1-cyclopentyl-4-(4-fluorophenyl)-1H-imidazol-5-yl)furan-2-carboxamido)benzoate]	5.11	< 10	11.5
CCOc1ccc(NC(=O)c2ccc(-c3c(-c4ccc(F)cc4)ncn3C3CCCC3)o2)cc1 [Compound 28, 5-(1-cyclopentyl-4-(4-fluorophenyl)-1H-imidazol-5-yl)-N-(4-ethoxyphenyl)furan-2-carboxamide]	37	37	63.7
Cc1ccccc1NC(=O)c1ccc(-c2c(-c3ccc(F)cc3)ncn2C2CCCC2)o1 [Compound 29, 5-(1-cyclopentyl-4-(4-fluorophenyl)-1H-imidazol-5-yl)-N-(o-tolyl)furan-2-carboxamide]	62	62	115
Cc1ccc(NC(=O)c2ccc(-c3c(-c4ccc(F)cc4)ncn3C3CCCC3)o2)cc1Cl [Compound 30, N-(3-chloro-4-methylphenyl)-5-(1-cyclopentyl-4-(4-fluorophenyl)-1H-imidazol-5-yl)furan-2-carboxamide]	95	95	888
